Legend:
[1] = Clinical symptoms of rats in metabolic model; format: in vivo, rat; details: SD rats, dose 0.05-0.5 mg/kg per Table 6
Procedure: (§1) Sprague-Dawley male rats (200 ± 20 g) were obtained from SPF (Beijing) Biotechnology Co., Ltd. (Beijing, China). The animals were housed under controlled environmental conditions: Temperature was maintained at 20–25 °C, humidity at 50 ± 10%, and a 12/12 h light/dark cycle was applied. They had ad libitum access to standard laboratory chow and filtered water. A two-week acclimatization period was provided before the experiments began. The 26 SC standards were prepared in normal saline at concentrations of 0.5 mg/mL, 0.1 mg/mL, and 0.05 mg/mL. Each rat was weighed before administration, and the injection dose was adjusted based on body weight. The dosing volume for each rat was maintained at approximately 200 µL.
(§2) 162 Sprague-Dawley (SD) rats were randomly divided into 27 groups, with six rats in each group. The control group received an injection of normal saline, while the remaining groups were injected with 26 different types of SCs. The dosage administered was determined based on pre-experimental results, specifically selecting the dose that produced the highest level of metabolites in the blood samples collected 1 h after tail vein injection at concentrations of 0.5 mg/kg, 0.1 mg/kg, and 0.05 mg/kg, as shown in Table 6. Subsequently, tail vein administration was conducted at the specified dosage. The orbital venous blood was taken from the outer canthus of the rat with capillaries at 15 min and 1 h. Feces were collected after the blood. The rats were then sacrificed, and their brains and livers were dissected. Samples were immediately frozen in liquid nitrogen and stored at −80 °C until analysis.

[2] = Metabolite identification, HLM incubation and rat model combined (UHPLC-Q-Exactive Orbitrap MS); parameters: species or system human; rat; details: for Characteristic Metabolite: characteristic / defining metabolites by the screening criteria; for Number of Metabolites / Number of Phase I Metabolites / Number of Phase II Metabolites: in vitro (HLM) and in vivo (rat) models together
Procedure: as §1, §2
For blood samples, 0.5 mL of each sample was mixed with 1.0 mL of acetonitrile. For brain samples, 0.2 g of tissue was combined with 0.5 mL of acetonitrile. For liver samples, 0.5 g of tissue was mixed with 0.5 mL of acetonitrile. For feces samples, 0.2 g of sample was combined with 1 mL of acetonitrile-water (3:1) for grinding and homogenization. Each mixture was sonicated for 40 min, allowed to precipitate at 4 °C for 30 min, and then centrifuged at 13,500 rpm for 10 min. The supernatant was filtered using a syringe filter (0.45 μm) for further testing.

[3] = Human liver microsomal incubation (in vitro metabolic model); details: HLM, 37 °C 1 h, then UDPGA 30 min; peak area of parent in experimental group vs degradation control group
Procedure: Each of the 26 SCs was configured to 1 mg/mL with acetonitrile. The HLMs, NADPH regeneration solution A, regeneration solution B, and UDPGA solution were thawed at 4 °C. An icebox was prepared, and all additional steps were performed on ice. For this, 10 µL of NADPH regeneration solution A, 2 µL of regeneration solution B, 2 µL of SCs standard, and 10 µL of mixed human liver microsomes were added to 176 µL of 0.1 mol/L phosphate buffer. The mixture was mixed thoroughly and incubated at 37 °C for 1 h. Subsequently, 20 µL of UDPGA solution was added and mixed well, followed by an additional incubation for 30 min. The reaction was stopped by adding 200 µL of ice-cold acetonitrile. Additionally, the negative control group and the degradation control group were set up following the same procedure. […] The unadded components were supplemented with an equal amount of phosphate buffer. All samples were centrifuged at a high speed of 13,500 r for 10 min after reaction termination. The supernatant was collected and subsequently passed through a membrane filter (0.45 μm) prior to sampling.
The samples were separated and analyzed using a UHPLC-Q-Exactive Orbitrap MS system (Thermo Fisher Scientific, Waltham, MA, USA), which comprised a Thermo-Scientific™ Q-Exactive™(Thermo Fisher Scientific, Waltham, MA, USA) quadrupole electrostatic field orbitrap mass spectrometer coupled to a Vanquish ultrahigh-performance liquid chromatography (UHPLC) system (Thermo Fisher Scientific, Waltham, MA, USA) with a heated electrospray ionization HESI source in the positive ionization mode. The samples were separated on an ACQUITY UPLC BEH C18 Column (100 × 2.1 mm, 1.7 μm) with the column temperature maintained at 30 °C. The chromatographic separation was achieved using a gradient elution program with mobile phase A consisting of 0.1% formic acid in water and mobile phase B containing 0.1% formic acid in acetonitrile. The gradient profile was programmed as follows: Initial conditions were maintained at 5% B from 0 to 1 min, followed by a linear increase to 95% B from 1 to 11 min; the 95% B composition was held from 11 to 15.5 min, then decreased back to 5% B from 15.5 to 16 min, and finally maintained at 5% B from 16 to 18 min. The flow rate was set at 0.3 mL/min, and the injection volume was 10 μL for all analyses.
The following HESI source conditions were adopted: Acquisition mode was set to positive ion mode; the capillary temperature was maintained at 325 °C, the auxiliary gas heater temperature was set to 350 °C, and the spray voltage was applied at 3.7 kV. The mass spectrometry analysis was carried out in full-scan (FS) mode to trigger data-dependent acquisition in tandem mass spectrometry (FS-ddMS^2) mode. The FS data acquisition was performed using the following parameters: a resolution of 60,000, an automatic gain control (AGC) target of 1 × 10^6, a scan range of m/z 66.7–1000, and a maximum injection time (IT) of 250 ms. The ddMS^2 data acquisition was performed using the following parameters: a resolution of 30,000; an automatic gain control (AGC) target of 1 × 10^5; normalized collision energies (NCEs) of 20, 40, and 70 eV; and a maximum injection time (IT) of 50 ms.
Data acquisition was executed utilizing Xcalibur 4.3 software (Thermo Fisher Scientific, Waltham, MA, USA). The subsequent analysis of the acquired data was conducted using Thermo Fisher Scientific […] 3.2 software (Thermo Fisher Scientific, Waltham, MA, USA). The workflow’s nodes employed specific parameters: a mass tolerance of 5 ppm, a signal-to-noise threshold of 3, a minimum peak intensity of 1 × 10^5, a maximum peak width of 0.8 min, and a minimum of 3 scans per peak.

| SMILES | Animal manifestations after tail vein drug injection [1] | Characteristic Metabolite [2] | Number of Metabolites [2] | Number of Phase I Metabolites [2] | Number of Phase II Metabolites [2] | Conversion Rate [3] [%] |
| --- | --- | --- | --- | --- | --- | --- |
| COC(=O)C(NC(=O)c1nn(CCCCCF)c2ccccc12)C(C)(C)C (centres unmarked) [5F-ADB] | hematuria | Ester hydrolysis, dehydrogenation, and acidification metabolites | 25 | 17 | 8 | 88.1 |
| CCOC(=O)C(NC(=O)c1nn(CCCCCF)c2ccccc12)C(C)C (centres unmarked) [5F-EMB-PICA] | – | Ester hydrolysis, amide hydrolysis, and oxidative defluorination metabolite | 19 | 9 | 10 | 80.6 |
| C=CCCCn1nc(C(=O)NC(C(N)=O)C(C)C)c2ccccc21 (centres unmarked) [AB-4en-PINACA] | – | Deamination, hydration, and deamidation metabolites | 18 | 17 | 1 | 98.7 |
| CN1CCCCC1Cn1cc(C(=O)C2C(C)(C)C2(C)C)c2ccccc21 (centres unmarked) [AB-005] | – | Hydroxylation, de-N-alkyl side chain, dehydrogenation, and dihydroxylation metabolites | 17 | 12 | 5 | 60.9 |
| CC(C)C(NC(=O)c1nn(Cc2ccc(F)cc2)c2ccccc12)C(N)=O (centres unmarked) [AB-FUBINACA] | – | Hydrolysis, hydroxylation, and deamination metabolites | 19 | 15 | 4 | 74.6 |
| C=CCCn1nc(C(=O)NC(C(N)=O)C(C)(C)C)c2ccccc21 (centres unmarked) [ADB-3en-BUTINACA] | – | Dihydrodiol, deamination, deamination, and hydroxylation metabolites | 22 | 18 | 4 | 98.7 |
| C=CCCCn1nc(C(=O)NC(C(N)=O)C(C)(C)C)c2ccccc21 (centres unmarked) [ADB-4en-PINACA] | – | Deamination, hydration, dihydrodiol, and deamination metabolites | 30 | 25 | 5 | 18.2 |
| CC(C)(C)C(NC(=O)c1nn(CC2CCCCC2)c2ccccc12)C(N)=O (centres unmarked) [ADB-CHMINACA] | irritable, with unstable gait and tachypnea | Deamination, deamination of N-alkyl side chains, and hydrolytic metabolites | 25 | 18 | 7 | 62.8 |
| CCCCCCn1nc(C(=O)NC(C(N)=O)C(C)(C)C)c2ccccc21 (centres unmarked) [ADB-HEXINACA] | – | Deamination, deamidation, amide hydrolysis, and hydroxylation metabolites | 31 | 24 | 7 | 24.8 |
| CCCCCn1cc(C(=O)NC(C(N)=O)C(C)(C)C)c2cccnc21 (centres unmarked) [ADB-P7AICA] | – | Hydroxylation, deamination, and dehydrogenation metabolites | 40 | 28 | 12 | 42.9 |
| CCCCCn1c(C(=O)c2cccc3ccccc23)nc2ccccc21 [BIM-018] | – | Ketogenic, hydroxylated, and dehydrogenated metabolites | 27 | 13 | 14 | 93.7 |
| O=C(c1cccc2ccccc12)c1nc2ccccc2n1CCCCCF [BIM-2201] | – | Oxidative defluorination, dihydrodiol, and hydroxylated metabolite | 29 | 17 | 12 | 90.2 |
| CC1(C)C(C(=O)c2cn(Cc3ccc(F)cc3)c3ccccc23)C1(C)C [FUB-144] | hematuria | Ketogenic and hydroxylated, hydroxylated, and dehydrogenated metabolites | 18 | 11 | 7 | 30.4 |
| CCCCCn1cc(C(=O)c2ccc3ccccc3c2)cc1-c1ccccc1F [JWH-307] | – | Hydroxylation, ketogenic, and de-N-alkyl side chain metabolites | 20 | 12 | 8 | 55.2 |
| CCCCCn1cc(C(=O)c2ccc3ccccc3c2)cc1-c1ccccc1C [JWH-370] | syncope | Dihydrodiol, hydroxylated, and de-N-alkyl side chain metabolites | 14 | 9 | 5 | 42.0 |
| C=CCCCn1nc(C(=O)NC(C(=O)OC)C(C)(C)C)c2ccccc21 (centres unmarked) [MDMB-4en-PINACA] | – | Dihydrodiol, ester hydrolysis, ketogenic, and amide hydrolysis metabolites | 14 | 12 | 2 | 69.7 |
| CCCCCn1cc(C(=O)C2C(C)(C)C2(C)C)c2ccccc21 [UR-144] | – | Hydroxylation, de-N-alkyl side chains, and ketogenic metabolites | 24 | 15 | 9 | 30.5 |

Reference: PMC12250893, “Systematic Characterization of In Vitro and In Vivo Metabolic Pathways and Identification of Novel Biomarkers of 26 Synthetic Cannabinoids” (Molecules, 2025)
